Values joined by “and” are separate entries in the source; they are usually repeats but may differ in a detail not shown here. Equal values may be shown once.
Experiments:
[1] = target: T1, bovine α3β4 nicotinic acetylcholine receptors (Bos taurus, UniProt Q07263+Q8SPU6); assay: Two-electrode voltage clamp of ACh-induced inward current (IACh), wild-type α3β4 nAChRs expressed in Xenopus oocytes; format: cell-based; conditions: for IC50: read-out: IC50 (half-maximal inhibitory response concentration)
T1 construct: host or cells: Xenopus laevis oocytes injected with in vitro transcribed mRNA
Description: (§1) Bovine cholinergic receptor nicotinic α3 subunit (gene accession number: 282702) and β4 subunit (gene accession number: 282181) were obtained from OriGene (Rockville, State Abbr. USA). All reagents, including ACh, MEC, and BA, were purchased from Sigma-Aldrich (St. Louis, MO, USA). All reagent stocks used in electrophysiological experiments were dissolved in dimethyl sulfoxide (DMSO) with the final concentration of DMSO not exceeding 0.01%. Frogs (Xenopus laevis) used in these experiments were obtained from the Korean Xenopus Resource Center for Research (KXRCR000001) and used according to appropriate standards.
(§2) All experiments were performed according to appropriate standards. After anesthetizing frogs on ice preoperatively, oocytes were extracted. Outer layers of oocytes were removed with OR-2 (Oocyte Ringer 2 solution) (82.5 mM NaCl, 2 mM KCl, 1 mM MgCl2, 5 mM HEPES, pH 7.4) containing collagenase II (2 mg/mL) in a room temperature shaker. Only stage V–VI oocytes were selected and used in this study. These oocytes were incubated in ND96 incubation buffer ([…] NaCl, 2 mM KCl, 1 mM MgCl2, 1.8 mM CaCl2, 5 mM HEPES, 2.5 mM sodium pyruvate, and […] gentamycin, pH 7.4) at 18 °C prior to mRNA injection.
(§3) Bovine α3β4 nAChRs cDNAs were restricted using appropriate restriction sites. Bovine α3β4 nAChRs mRNA was then subjected to in vitro transcription using a T7 polymerase kit (mMESSAGE mMACHINE T7 Transcription Kit; Thermo Fisher Scientific, Waltham, MA, USA) followed by injection into oocytes. A glass needle filled with mineral oil was used to install onto a nanoinjector (Drummond Scientific, Broomall, PA, USA). After incubating for 1–3 days, mRNA-injected oocytes were used for electrophysiology experiments.
Two-electrode voltage clamp (TEVC) experiments were performed using oocytes infused with α3β4 nAChR mRNA and cultured according to appropriate criteria. Each oocyte was penetrated with a microelectrode filled with 3M KCl at a resistance of 0.2 MΩ. All experiments were performed at room temperature using a two-electrode voltage clamp (OC-725C; Warner Instruments, Hamden, CT, USA) with a Digidata 1322A. The holding potential of the oocyte membrane potential was −80 mV. ACh and BA used in the experiment were diluted with ND96 buffer to appropriate concentrations. The perfusion rate was about 2 mL per minute. The induced-inward current was converted to digital data with the pClamp 10 software (Axon Instruments, Union City, CA, USA) for further analysis.
The current-voltage relationship was measured by changing the holding potential using a ramp protocol. Voltages ranging from −100 mV to +60 mV were applied to injected oocytes to measure the voltage ramp trace. The values were converted using Clampfit 9.0 (Molecular Devices, San Jose, CA, USA).
Concentration-response curve data were analyzed using SigmaPlot 10.0 software. Equation data were obtained using OriginPro 9.0 software (Origin, MA, USA) and fitted using the Hill equation y = Vmin + (Vmax − Vmin)*[x]^n/([IC50]^n + [x]^n), where Vmax and Vmin were the maximum and minimum current, respectively, x was the concentration of ACh or BA, n was the coefficient of interaction, and IC50 was the concentration of BA that produced half the maximum inhibitory effect. p-values < 0.05 were considered statistically significant.

[2] = target: T2, α3 (L257A) + Wild β4 nicotinic acetylcholine receptor (Bos taurus, UniProt Q07263+Q8SPU6, L278A); assay: Two-electrode voltage clamp, single-mutant α3 (L257A) + wild β4 nAChR in Xenopus oocytes; format: cell-based, bovine; conditions: 100 μM ACh, holding potential −80 mV
T2 construct: host or cells: Xenopus laevis oocytes injected with mRNA; mutant made by site-directed mutagenesis
Description: as §1, §2, §3
(§4) Using α3 and β4 subunit cDNAs, point mutation was performed by PCR with Pfu DNA polymerase (Quikchange II Site-Directed Mutagenesis Kit). After designing a chimeric primer for mutation, optimal PCR conditions were determined. DpnI was added to remove methylated cDNA. […]
(§5) Concentration-response curve data were analyzed using SigmaPlot 10.0 software. […]

[3] = target: T3, Wild α3 + β4 (I263A) nicotinic acetylcholine receptor (Bos taurus, UniProt Q07263+Q8SPU6, I284A); assay: Two-electrode voltage clamp, single-mutant wild α3 + β4 (I263A) nAChR in Xenopus oocytes; format: cell-based, bovine; conditions: 100 μM ACh, holding potential −80 mV
T3 construct: host or cells: Xenopus laevis oocytes injected with mRNA; mutant made by site-directed mutagenesis
Description: as §1, §2, §3, §4, §5

[4] = target: T4, α3 (L257A) + β4 (I263A) nicotinic acetylcholine receptor (Bos taurus, UniProt Q07263+Q8SPU6, I284A/L278A); assay: Two-electrode voltage clamp, double-mutant α3 (L257A) + β4 (I263A) nAChR in Xenopus oocytes; format: cell-based, bovine; conditions: 100 μM ACh, holding potential −80 mV
T4 construct: host or cells: Xenopus laevis oocytes injected with mRNA; mutants made by site-directed mutagenesis
Description: as §1, §2, §3, §4, §5

[5] = wild-type, co-applied with 100 μM ACh, holding potential −80 mV

T4 sequence (Q07263 22-495 L278A): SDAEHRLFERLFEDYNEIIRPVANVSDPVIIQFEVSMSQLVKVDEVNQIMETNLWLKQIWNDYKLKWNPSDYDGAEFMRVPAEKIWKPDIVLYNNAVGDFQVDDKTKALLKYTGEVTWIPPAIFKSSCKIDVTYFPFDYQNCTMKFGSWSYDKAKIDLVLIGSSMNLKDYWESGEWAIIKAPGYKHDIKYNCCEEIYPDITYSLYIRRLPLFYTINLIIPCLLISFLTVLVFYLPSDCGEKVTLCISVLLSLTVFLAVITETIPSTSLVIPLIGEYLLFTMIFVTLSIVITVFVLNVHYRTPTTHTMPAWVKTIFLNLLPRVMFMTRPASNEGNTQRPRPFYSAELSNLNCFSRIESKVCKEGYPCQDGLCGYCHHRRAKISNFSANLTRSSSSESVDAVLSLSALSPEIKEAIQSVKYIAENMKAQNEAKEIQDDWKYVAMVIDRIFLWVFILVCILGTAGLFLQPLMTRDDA
T4 sequence (Q8SPU6 20-496 I284A): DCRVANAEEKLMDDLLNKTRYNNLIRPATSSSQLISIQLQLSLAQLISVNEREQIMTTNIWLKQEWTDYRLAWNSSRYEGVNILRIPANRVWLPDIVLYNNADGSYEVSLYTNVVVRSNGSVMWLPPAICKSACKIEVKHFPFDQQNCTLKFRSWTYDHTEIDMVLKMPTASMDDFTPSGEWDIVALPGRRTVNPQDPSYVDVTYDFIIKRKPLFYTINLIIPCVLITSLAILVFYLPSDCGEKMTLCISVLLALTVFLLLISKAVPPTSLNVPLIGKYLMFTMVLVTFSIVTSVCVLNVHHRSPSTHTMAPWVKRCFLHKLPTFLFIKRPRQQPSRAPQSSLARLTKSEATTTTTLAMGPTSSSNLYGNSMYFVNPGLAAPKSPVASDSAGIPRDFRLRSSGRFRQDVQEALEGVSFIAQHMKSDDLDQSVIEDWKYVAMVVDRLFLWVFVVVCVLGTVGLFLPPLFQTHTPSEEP
T2 sequence (Q07263 22-495 L278A): as the sequence (Q07263 22-495 L278A) above
T2 sequence (Q8SPU6 20-496, stated change not applied): as the sequence (Q8SPU6 20-496 I284A) above, with A265I counted along it
T1 sequence (Q07263 22-495): as the sequence (Q07263 22-495 L278A) above, with A257L counted along it
T1 sequence (Q8SPU6 20-496): as the sequence (Q8SPU6 20-496 I284A) above, with A265I counted along it
T3 sequence (Q07263 22-495, stated change not applied): as the sequence (Q07263 22-495 L278A) above, with A257L counted along it
T3 sequence (Q8SPU6 20-496 I284A): as the sequence (Q8SPU6 20-496 I284A) above

decrease of efficacy of acetylcholine-induced inward current ([1]; 10 μM BA compared to 0 μM BA)	reversible potential (current-voltage relationship) ([1]; ACh 100 μM and BA co-administered, voltage ramp −100 to +60 mV)	reversibility of inhibition ([1]; ACh added again after BA co-administration)	inhibition percentage of nAChRs ([1]; BA 100 μM co-applied with 100 μM ACh, holding potential −80 mV)	manner of inhibition versus ACh ([1]; different ACh concentrations with fixed BA 3 μM or 10 μM)	Hill coefficient (nH) [1, 5]	Imax [1, 5]	IC50 [1, 5]	IC50 [2]	Imax [2]	nH (Hill coefficient) [2]	IC50 [3]	Imax [3]	nH (Hill coefficient) [3]	IC50 [4]	Imax [4]	nH (Hill coefficient) [4]	inhibition at 10 µM ([1]; MEC 10 μM added at the same time as 100 μM ACh, holding potential −80 mV, read-out: inhibition of IACh (acetylcholine-induced inward peak current))	SMILES	EC50 ([1]; in the absence of BA, holding potential −80 mV)	Emax ([1]; read-out: maximum efficacy of ACh-induced inward current (Emax))
about 60%	about −10 mV	reversible	89.2 ± 8.2%	non-competitive	0.9 ± 0.1	101.59 ± 5.98% and 101.5 ± 5.9%	12.9 µM and 12.8 µM	18.6 µM	48.9 ± 2.7%	1.6 ± 0.1	~13.4 µM and 13.4 µM	33.1 ± 3.3%	2.7 ± 1.0	~26.2 µM	7.4%	2		C=C(C)[C@@H]1CC[C@]2(C(=O)O)CC[C@]3(C)[C@H](CC[C@@H]4[C@@]5(C)CC[C@H](O)C(C)(C)[C@@H]5CC[C@]43C)[C@@H]12 [BA, 3β, hydroxy-lup-20 (29) -en-28-oic acid]		
					1.5 ± 0.1		1.5 µM										~100%	CNC1(C)C2CCC(C2)C1(C)C (stereo not shown) [MEC, mecamylamine, reference compound]		
																		CC(=O)OCC[N+](C)(C)C [ACh, acetylcholine]	9.4 ± 1.25 µM	101 ± 1.47%

— publication PMC8125762, “Molecular Regulation of Betulinic Acid on α3β4 Nicotinic Acetylcholine Receptors” (Molecules, 2021)
